Laboratory results from US20220315578A1, “BRD9 BIFUNCTIONAL DEGRADERS AND THEIR METHODS OF USE” (NOVARTIS AG, priority 2019, published 2022).

Target: T1, BRD9-GFP (Homo sapiens, UniProt Q9H8M2)
T1 construct: CHYSEL (2A cis-acting hydrolase element) remnant after GFP; mCherry is split off as a separate protein (C); expressed in transfected cells; host or cells: HEK293A cells (Invitrogen R70507), lentiviral transduction with pLenti6-BRD9-GFP-CHYSEL-mCherry, blasticidin selection
T1 sequence (Q9H8M2 1-597): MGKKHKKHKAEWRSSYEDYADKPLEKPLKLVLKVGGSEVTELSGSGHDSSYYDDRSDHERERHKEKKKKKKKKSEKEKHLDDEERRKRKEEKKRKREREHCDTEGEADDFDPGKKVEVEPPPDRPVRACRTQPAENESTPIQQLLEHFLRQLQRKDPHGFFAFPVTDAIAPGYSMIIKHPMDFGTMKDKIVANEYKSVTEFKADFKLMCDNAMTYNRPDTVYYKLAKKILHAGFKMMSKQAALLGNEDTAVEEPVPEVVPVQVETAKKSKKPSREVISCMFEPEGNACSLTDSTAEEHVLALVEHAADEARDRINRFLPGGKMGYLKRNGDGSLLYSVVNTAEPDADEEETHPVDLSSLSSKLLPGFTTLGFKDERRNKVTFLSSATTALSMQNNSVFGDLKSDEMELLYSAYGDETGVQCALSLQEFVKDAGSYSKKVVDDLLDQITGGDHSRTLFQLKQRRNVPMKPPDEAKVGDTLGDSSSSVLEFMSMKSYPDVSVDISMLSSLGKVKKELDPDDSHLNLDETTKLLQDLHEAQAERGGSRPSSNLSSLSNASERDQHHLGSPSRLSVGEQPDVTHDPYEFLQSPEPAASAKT
Experiment: BRD9-GFP protein abundance flow cytometry assay in HEK293A cells
Assay type: cell-based
Conditions: HEK293A-BRD9-GFP-CHYSEL-mCherry cells; for BRD9 Deg Amax %: 24 h, % protein remaining at the concentration at which maximum degradation is seen; for DC50: 24 h at 37° C., 10-point 1:3 dilution, concentration at which 50% maximal degradation was observed
Summary of the method: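 HEK293A cells stably express bicistronic BRD9-GFP-CHYSEL-mCherry and received 24 h treatment at 37° C with a 10-point, 3-fold dilution series from […], in 0.1% DMSO and duplicate. Median GFP/mCherry ratio of 5,000 single cells by flow cytometry, normalized to mCherry-only cells (0%) and DMSO (100%), gave DC50 and Amax (% protein remaining).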

| SMILES | BRD9 Deg Amax % [%] | DC50 [nM] |
| --- | --- | --- |
| CCCCn1cc(-c2cc(OC)c(CN3CCC(OC4CCN(CCn5cccc(CN6CCC(=O)NC6=O)c5=O)CC4)CC3)cc2OC)c2ccncc2c1=O [Compound D1, 1-((1-(2-(4-((1-(4-(2-butyl-1-oxo-1,2-dihydro-2,7-naphthyridin-4-yl)-2,5-dimethoxybenzyl)piperidin-4-yl)oxy)piperidin-1-yl)ethyl)-2-oxo-1,2-dihydropyridin-3-yl)methyl)dihydropyrimidine-2,4(1H,3H)-dione] | 14.78 | 16 |
| CCCCn1cc(-c2cc(OC)c(CN3CCC(OC4CCN(CCn5cccc(CN6CCC(=O)NC6=O)c5=O)CC4)CC3)c(OC)c2)c2ccncc2c1=O [Compound D2, 1-((1-(2-(4-((1-(4-(2-butyl-1-oxo-1,2-dihydro-2,7-naphthyridin-4-yl)-2,6-dimethoxybenzyl)piperidin-4-yl)oxy)piperidin-1-yl)ethyl)-2-oxo-1,2-dihydropyridin-3-yl)methyl)dihydropyrimidine-2,4(1H,3H)-dione] | 13.05 | 15 |
| CCCCn1cc(-c2cc(OC)c(CCN3CCC(OC4CCN(CCn5cccc(CN6CCC(=O)NC6=O)c5=O)CC4)CC3)c(OC)c2)c2ccncc2c1=O [Compound D4, 1-((1-(2-(4-((1-(4-(2-butyl-1-oxo-1,2-dihydro-2,7-naphthyridin-4-yl)-2,6-dimethoxyphenethyl)piperidin-4-yl)oxy)piperidin-1-yl)ethyl)-2-oxo-1,2-dihydropyridin-3-yl)methyl)dihydropyrimidine-2,4(1H,3H)-dione] | 16.34 | 3 |
| Cn1cc(-c2cc(F)c(CN3CCC(OC4CCN(CCn5cccc(CN6CCC(=O)NC6=O)c5=O)CC4)CC3)cc2F)c2ccncc2c1=O [Compound E1, 1-((1-(2-(4-((1-(2,5-difluoro-4-(2-methyl-1-oxo-1,2-dihydro-2,7-naphthyridin-4-yl)benzyl)piperidin-4-yl)oxy)piperidin-1-yl)ethyl)-2-oxo-1,2-dihydropyridin-3-yl)methyl)dihydropyrimidine-2,4(1H,3H)-dione] | 19.40 | 6 |
| COc1cc(-c2cn(C)c(=O)c3cnccc23)c(OC)cc1CN1CCC(O[C@@H]2CCN(CCn3cccc(CN4CCC(=O)NC4=O)c3=O)C[C@H]2F)CC1 [Compound E2, 1-((1-(2-((3R,4R)-4-((1-(2,5-dimethoxy-4-(2-methyl-1-oxo-1,2-dihydro-2,7-naphthyridin-4-yl)benzyl)piperidin-4-yl)oxy)-3-fluoropiperidin-1-yl)ethyl)-2-oxo-1,2-dihydropyridin-3-yl)methyl)dihydropyrimidine-2,4(1H,3H)-dione] | 12.45 | 35 |
| CCCCn1cc(-c2ccc(O[C@H]3CC[C@@H](OC4CCN(C(=O)c5ccc(OC)c(N6CCC(=O)NC6=O)c5)CC4)CC3)cc2)c2ccncc2c1=O [Compound E3, 1-(5-(4-(((cis)-4-(4-(2-butyl-1-oxo-1,2-dihydro-2,7-naphthyridin-4 yl)phenoxy)cyclohexyl)oxy)piperidine-1-carbonyl)-2-methoxyphenyl)dihydropyrimidine-2,4(1H,3H)-dione] | 18.38 | 2 |
| CCCCCCn1cc(-c2cc(OC)c(CCN3CCC(OC4CCN(C(=O)c5ccc(OC)c(N6CCC(=O)NC6=O)c5)CC4)CC3)c(OC)c2)c2ccncc2c1=O [Compound E4, 1-(5-(4-((1-(4-(2-hexyl-1-oxo-1,2-dihydro-2,7-naphthyridin-4-yl)-2,6-dimethoxy-phenethyl)piperidin-4-yl)oxy)piperidine-1-carbonyl)-2-meth-oxyphenyl)dihydro-pyrimidine-2,4(1H,3H)-dione] | 19.61 | 34 |
| CCCCn1cc(-c2cc(F)c(OC3CCN(CCC4CCN(C(=O)c5ccc(OC)c(N6CCC(=O)NC6=O)c5)CC4)CC3)c(F)c2)c2ccncc2c1=O [Compound E6, 1-(5-(4-(2-(4-(4-(2-butyl-1-oxo-1,2-dihydro-2,7-naphthyridin-4-yl)-2,6-difluorophenoxy)piperidin-1-yl)ethyl)piperidine-1-carbonyl)-2-methoxyphenyl)dihydropyrimidine-2,4(1H,3H)-dione] | 21.29 | 9 |
| CCCCn1cc(-c2cc(F)c(O[C@@H]3CCN(CCC4CCN(C(=O)c5ccc(OC)c(N6CCC(=O)NC6=O)c5)CC4)C[C@H]3F)c(F)c2)c2ccncc2c1=O [Compound E14, 1-(5-(4-(2-((3R,4R)-4-(4-(2-butyl-1-oxo-1,2-dihydro-2,7-naphthyridin-4-yl)-2,6-difluorophenoxy)-3-fluoropiperidin-1-yl)ethyl)piperidine-1-carbonyl)-2-meth-oxyphenyl)dihydro-pyrimidine-2,4(1H,3H)-dione] | 18.10 | 1 |

Further lines, results first:

| BRD9 Deg Amax % [%] | DC50 [nM] | SMILES |
| --- | --- | --- |
| 17.62 | 47 | CCCCn1cc(-c2cc(OC)c(CCN3CCC(OC4CCN(CCn5cccc(CN6CCC(=O)NC6=O)c5=O)CC4)CC3)cc2OC)c2ccncc2c1=O [Compound D3, 1-((1-(2-(4-((1-(4-(2-butyl-1-oxo-1,2-dihydro-2,7-naphthyridin-4-yl)-2,5-dimethoxyphenethyl)piperidin-4-yl)oxy)piperidin-1-yl)ethyl)-2-oxo-1,2-dihydropyridin-3-yl)methyl)dihydropyrimidine-2,4(1H,3H)-dione] |
| 14.46 | 5 | CCCn1cc(-c2ccc(CN3CC[C@@H](OC4CCN(C(=O)c5cccc(N6CCC(=O)NC6=O)c5)CC4)[C@H](F)C3)cc2)c(C)c(C)c1=O [Compound E5, 1-(3-(4-(((3R,4R)-1-(4-(4,5-dimethyl-6-oxo-1-propyl-1,6-dihydropyridin-3-yl)benzyl)-3-fluoropiperidin-4-yl)oxy)piperidine-1-carbonyl)phenyl)dihydropyrimidine-2,4(1H,3H)-dione] |
| 18.57 | 4 | CCCn1cc(-c2cc(OC)c(CCN3CC[C@@H](OC4CCN(CCn5cccc(CN6CCC(=O)NC6=O)c5=O)CC4)[C@H](F)C3)c(OC)c2)c(C)c(C)c1=O [Compound E7, 1-((1-(2-(4-(((3R,4R)-1-(4-(4,5-Dimethyl-6-oxo-1-propyl-1,6-dihydropyridin-3-yl)-2,6-dimethoxyphenethyl)-3-fluoropiperidin-4-yl)oxy)piperidin-1-yl)ethyl)-2-oxo-1,2-dihydropyridin-3-yl)methyl)dihydropyrimidine-2,4(1H,3H)-dione] |
| 33.47 | 30 | CCCn1cc(-c2cc(F)c(CCN3CCC(OC4CCN(C(=O)c5ccc(OC)c(N6CCC(=O)NC6=O)c5)CC4)CC3)c(F)c2)c(C)c(C)c1=O [Compound E12, 1-(5-(4-((1-(4-(4,5-dimethyl-6-oxo-1-propyl-1,6-dihydropyridin-3-yl)-2,6-difluorophenethyl)piperidin-4-yl)oxy)piperidine-1-carbonyl)-2 methoxyphenyl)dihydropyrimidine-2,4(1H,3H)-dione] |
| 13.06 | 2 | CCCCn1cc(-c2ccc(CN3CCC(OC4CCN(C(=O)c5ccc(OC)c(N6CCC(=O)NC6=O)c5)CC4)CC3)cc2)c2ccncc2c1=O [Compound E13, 1-(5-(4-((1-(4-(2-butyl-1-oxo-1,2-dihydro-2,7-naphthyridin-4-yl)benzyl)piperidin-4-yl)oxy)piperidine-1-carbonyl)-2-meth-oxyphenyl)dihydro-pyrimidine-2,4(1H,3H)-dione] |
| 19.85 | 17 | CCCCCCn1cc(-c2cc(OC)c(CCN3CCC(OC4CCN(C(=O)c5ccc(F)c(N6CCC(=O)NC6=O)c5)CC4)CC3)c(OC)c2)c2ccncc2c1=O [Compound E15, 1-(2-fluoro-5-(4-((1-(4-(2-hexyl-1-oxo-1,2-dihydro-2,7-naphthyridin-4-yl)-2,6-dimethoxyphenethyl)piperidin-4-yl)oxy)piperidine-1-carbonyl)phenyl)dihydropyrimidine-2,4(1H,3H)-dione] |
| 16.58 | 1 | CCCCn1cc(-c2ccc(O[C@H]3CCN(CC4CCN(C(=O)c5ccc(OC)c(N6CCC(=O)NC6=O)c5)CC4)C[C@@H]3F)c(F)c2)c2ccncc2c1=O [Compound E16, 1-(5-(4-(((3S,4S)-4-(4-(2-butyl-1-oxo-1,2-dihydro-2,7-naphthyridin-4-yl)-2-fluorophenoxy)-3-fluoropiperidin-1-yl)methyl)piperidine-1-carbonyl)-2-meth-oxyphenyl)dihydro-pyrimidine-2,4(1H,3H)-dione] |
